Source: ChEMBL document CHEMBL1158198, “Indole Alkaloids of Haplophyton crooksii 1” (J Nat Prod, 1996)

Molecular target: Acetylcholinesterase (Electrophorus electricus, UniProt O42275)
Experiment: Inhibition of electric eel AChE

Sequence of Acetylcholinesterase (O42275 whole entry): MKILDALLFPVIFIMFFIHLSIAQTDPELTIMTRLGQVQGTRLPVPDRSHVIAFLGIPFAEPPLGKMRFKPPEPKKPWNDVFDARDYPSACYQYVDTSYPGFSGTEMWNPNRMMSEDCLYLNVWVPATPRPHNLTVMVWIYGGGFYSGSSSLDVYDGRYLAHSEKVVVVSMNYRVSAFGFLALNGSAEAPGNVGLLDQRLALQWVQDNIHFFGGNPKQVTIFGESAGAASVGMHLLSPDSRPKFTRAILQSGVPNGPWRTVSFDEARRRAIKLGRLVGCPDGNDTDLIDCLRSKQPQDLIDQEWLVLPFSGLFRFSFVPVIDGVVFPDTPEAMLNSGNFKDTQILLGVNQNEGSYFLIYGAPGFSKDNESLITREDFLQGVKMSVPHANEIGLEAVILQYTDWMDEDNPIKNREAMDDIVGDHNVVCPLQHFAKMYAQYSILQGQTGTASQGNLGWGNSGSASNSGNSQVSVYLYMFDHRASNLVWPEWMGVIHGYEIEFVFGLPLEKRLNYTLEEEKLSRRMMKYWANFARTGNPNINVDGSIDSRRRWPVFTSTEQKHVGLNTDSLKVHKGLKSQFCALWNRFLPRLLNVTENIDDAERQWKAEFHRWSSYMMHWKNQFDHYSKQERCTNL

Compound	IC50 [µM]
CC[C@@H]1CCCN(CCc2c(C(C)=O)[nH]c3ccccc23)C1 [CROOKSIDINE]	175
C/C=C1/CN2CC[C@@]34c5ccccc5N(C)[C@H]5O[C@]3(O)[C@@H]2C[C@@H]1[C@]54C(=O)OC [LANCEOMAGINE]	383
CC[C@H]1[C@@H]2CCN3CC[C@@]4(C(=C2C(=O)OC)Nc2ccccc24)[C@@H]13 [TUBOTAIWINE]	108
C/C=C1\CN2[C@H]3C[C@H]1C(C(=O)OC)[C@@H]2Cc1c3n(C)c2ccc(OC)cc12 (some centres not stated)	135
C/C=C1/CN2CC[C@]34C(=C(C(=O)OC)[C@H]1C[C@H]23)Nc1ccccc14 [AKUAMMICINE]	221
COc1c([C@@]23CCN(C)[C@]4(CCC(=O)N4c4c(O)cccc42)C3=O)cc2c(c1OC)N(C)[C@@H]1C=C[C@@]34CCCN5CC[C@@]21[C@]53OC(=O)C4 [HAPLOPHYTINE]	225
CCC(=O)N1c2c(ccc(OC)c2O)[C@]23CCN4CCC[C@@]5(CC[C@@H]12)CC(=O)O[C@@]453 [CIMICIDINE]	197
COC(=O)[C@@H]1[C@H]2C[C@H]3c4[nH]c5ccccc5c4CCN3C[C@@H]2CC[C@@H]1O [YOHIMBINE]	431
C/C=C1/CN2[C@H]3Cc4c([nH]c5ccccc45)[C@@H]2C[C@@H]1[C@]3(CO)C(=O)OC [AKUAMMIDINE]	188
C/C=C1/CN2CC[C@]34c5cccc(OC)c5N[C@H]3C[C@H]1C[C@H]24	57
CCc1[nH]c2ccccc2c1CCN1CCCC(CC)C1 (configuration not stated) [DECARBOMETHOXYTETRAHYDROSECODINE]	203
CCC(=O)N1c2c(O)cccc2[C@]23CCN4CCC[C@@]5(CC[C@@H]12)CC(=O)O[C@@]453 [CIMICINE]	241
